Experiment: in vitro
Details: human, hela cells

Row | SMILES | viability at 28.5 h, 10 µM
1 | NC(=O)COC(=O)COc1ccc(Cl)cc1Cl [CBK058628] | 85.8%

Same assay, conditions: human, hela cells, % viability

Row | SMILES | viability at 28.5 h, 10 µM
2 | NC(=O)Nc1ccc2c(c1)ncn2C1CCCCC1 [CBK288176] | 95.6%
3 | O=C(NCCn1nc2c(cc1=O)CCCCC2)c1ccccc1F [CBK282300] | 89.3%
4 | COc1ncc(C(=O)NCc2cccnc2N(C)C2CCCCC2)cn1 [CBK306870] | 91.8%
5 | COc1ccc(N2CCN(c3nc(OC)nc(OC)n3)CC2)cc1 [CBK264245] | 100%
6 | CCCN1CCCC(c2ccccc2O)C1 (stereo not drawn) [CBK024365G] | 95.3%
7 | O=[N+]([O-])c1ccccc1S(=O)(=O)N1CCN(S(=O)(=O)c2ccc3ccccc3c2)CC1 [CBK264296] | 107%
8 | CC(NS(=O)(=O)c1ccc([N+](=O)[O-])cc1)C(=O)O (stereo not drawn) [CBK261834] | 90.5%
9 | O=C(O)c1cccc(S(=O)(=O)Nc2nc3c(Cl)cccc3s2)c1 [CBK161135] | 96.5%
10 | O[C@H]1CN[C@H](c2nc(-c3ccc(OC(F)(F)F)cc3)no2)C1 [CBK288836] | 112%
11 | CC(C)NCC(O)COC1CCC(C(C)(C)C)CC1 (stereo not drawn) [CBK029007C] | 89.2%
12 | Cc1ccc(-c2nn3c(C)nnc3s2)cc1NC(=O)c1ccc([N+](=O)[O-])o1 [CBK267247] | 95.2%
13 | CC(C)Nc1cc(SCCN(C)C)ncn1 [CBK105616] | 109%
14 | CC(O)CN(CC(C)O)CC1CC2C=CC1C2 (stereo not drawn) [CBK261896] | 90.4%
15 | Cc1ccc(OCCO)cn1 [CBK001786] | 91%
16 | COc1c(C)cc(Br)cc1C(=O)NC(=S)Nc1ccccc1N1CCN(C)CC1 [CBK267855C] | 97.1%
17 | O=C(Nc1nnc(C2=COCCO2)o1)c1cc(Cl)cc(Cl)c1 [CBK287418] | 91.1%
18 | O=C(NC1CCCN(c2ncccn2)C1)c1ccc(-c2ccc(F)cc2)s1 (stereo not drawn) [CBK298337] | 88.5%
19 | O=C1CCC(N2CCN(c3ncnc4ccccc34)CC2)CCN1 (stereo not drawn) [CBK304393] | 96.8%
20 | Cc1cc(Br)ccc1NC(=O)c1cnc2sccn2c1=O [CBK246520] | 112%
21 | CC(=O)N1CCN(C(=O)C[C@@H]2C[C@@H](C(C)C)[C@H](CNC(=O)c3cccnc3)C=C2C)CC1 [CBK289046] | 102%
22 | CCN1CCc2nc(NC(=O)c3ccc(Cl)cc3)sc2C1 [CBK287644] | 86.3%
23 | O=c1c(N2CCNCC2)nccn1CC1COc2ccccc2O1 (stereo not drawn) [CBK024845T] | 87%

Row | SMILES | viability at 28.5 h, 10 µM
24 | Cc1nc(C)c(C(=O)NC2Cc3ccccc3C2)s1 [CBK200357] | 91.2%
25 | CCCn1cc(CN2CCC(O)(c3ccc(C)cc3)CC2)cn1 [CBK282737] | 103%
26 | CCc1nccn1CCCNC(=O)Nc1cccnc1 [CBK306736] | 94.6%
27 | CC(O)CN(Cc1ccc(-c2ccccc2)cc1)Cc1ccc2c(c1)OCO2 (stereo not drawn) [CBK286450] | 94.1%
28 | O=C(COc1ccc(S(=O)(=O)N2CCCCC2)cc1)NCc1ccncc1 [CBK269053] | 92.5%
29 | Cc1ccc(-c2ccc(/C=N\NC(=O)C3C(=O)NCC3c3ccccc3)o2)cc1Cl (stereo not drawn) [CBK262808] | 98.7%
30 | CCOC(=O)Cn1nc(C)c(Cc2c(Cl)cccc2Cl)c1CC [CBK113223] | 85%
31 | Cc1cc(-c2cc(=O)n(Cc3ccc(F)cc3)nc2C2CC2)on1 [CBK284364] | 98.2%
32 | COc1ccc(CCOC(=O)Nc2cn(C)nc2C(F)(F)F)cc1OC [CBK021070] | 105%
33 | CC(NC(=O)/C(=C\c1ccc(Cl)cc1)NC(=O)c1ccccc1Br)C(=O)O (stereo not drawn) [CBK264582] | 91.4%
34 | OC1CCC(Nc2cncc(-c3ccc(F)cc3F)n2)CC1 (stereo not drawn) [CBK065835] | 107%
35 | COc1ccc(OC(=O)N2CCC(n3c(=O)[nH]c4ccccc43)CC2)cc1 [CBK149868] | 102%
36 | O=S(=O)(Nc1cccc(-c2nnn[nH]2)c1)c1sc(Cl)cc1Br [CBK155035] | 94.6%
37 | O=C(Nc1ccncc1)c1c(O)c2ccccc2[nH]c1=O [CBK288017] | 112%
38 | COc1ccc(-c2cc(C(=O)Nc3ccccn3)cnc2-c2ccccc2)cn1 [CBK037519] | 89.3%
39 | COc1cccc(CN(C)CCN(C)C)c1O [CBK261905] | 102%
40 | CCC(C)(C)c1ccc(S(=O)(=O)NCCCN2CCCC2)cc1 [CBK044126] | 95.8%
41 | O=C(NCCc1nc2cccnc2n1-c1ccccc1)c1ccncc1 [CBK288599] | 90.7%
42 | Cc1noc(/C=C\c2cc(C)n(-c3ccc(C(=O)O)cc3)c2C)c1[N+](=O)[O-] [CBK268862] | 98.8%
43 | Cc1cc(=O)oc2cc(Sc3cccc(C(F)(F)F)c3C#N)ccc12 [CBK002914] | 93.3%
44 | COC(=O)c1c(NS(=O)(=O)c2cccc(Cl)c2)csc1C [CBK026678] | 79.6%
45 | CCOC(=O)c1ncoc1-c1ccc(Cl)cc1Cl [CBK020578] | 90.2%

Row | SMILES | viability at 28.5 h, 10 µM
46 | O=c1[nH]c2ncc(-c3cncc4ccccc34)nc2n1Cc1ccccc1 [CBK065113] | 99.1%
47 | COc1ccc(C(CC(=O)O)NC(=O)c2ccc(Cl)cc2Cl)cc1 (stereo not drawn) [CBK269131] | 91.8%
48 | COc1cc(/C=N/c2ccc(/N=C/c3cc(Br)c(O)c(OC)c3)cc2)cc(Br)c1O [CBK261843] | 82.7%
49 | Cn1c(C(=O)O)cc2cc(Oc3ccccc3)ccc21 [CBK286873] | 86.3%
50 | COC(=O)c1cccn2cc(CN3CCOC4CCCCC43)nc12 (stereo not drawn) [CBK304949] | 106%
51 | COc1ccc(S(=O)(=O)N2CCC(C(=O)Nc3cccc(F)c3)CC2)cc1C [CBK267987] | 92%
52 | COc1ccc(CO)cc1OCc1ccccc1 [CBK051334] | 110%
53 | O=S(=O)(Nc1ccc2c(ccn2Cc2ccccc2)c1)c1cc(C(F)(F)F)cc(C(F)(F)F)c1 [CBK159540] | 94.7%
54 | O=C(Cc1ccc(-c2ccccc2)cc1)NCc1nnc(-c2cccs2)o1 [CBK286295] | 94.3%
55 | CC1CCc2c(sc3ncnc(OCC(=O)N4CCNC4=O)c23)C1 (stereo not drawn) [CBK305775] | 96.1%
56 | O=C(c1nn2c(c1Br)NC(c1cccs1)CC2C(F)(F)F)N1CCCC1 (stereo not drawn) [CBK307180] | 88.7%
57 | Cn1nc2c(c1C(=O)NCC(C)(C)N1CCCCC1)CCCC2 [CBK281878] | 94.4%
58 | CC1CC1C(=O)NCC(=O)N1CCN(S(=O)(=O)c2ccccc2[N+](=O)[O-])CC1 (stereo not drawn) [CBK296747] | 90.4%
59 | CC(C)CC(=O)N1CCC(Cc2ccccc2-c2cccs2)(C(=O)NC(C)C)CC1 [CBK285898] | 87.3%
60 | C[C@H](c1ccccc1)n1c(=O)[nH]c2ncc(-c3cccc(C(=O)NCCN(C)C)c3)nc21 [CBK064204] | 96.5%
61 | Cc1cc(C)nc(N2CCN(CCC(=O)O)CC2)n1 [CBK287272] | 97%
62 | Cc1noc(COc2ccc(OCc3nc(C)no3)cc2)n1 [CBK261364] | 95.6%
63 | CC1=C[C@@H](CNC(=O)c2ccncc2)[C@H](C(C)C)C[C@H]1CC(=O)N1CCOCC1 [CBK289052] | 80.2%
64 | CN(C)CCCn1c(NCc2ccc3c(c2)OCO3)nc2ccccc21 [CBK278273C] | 94.4%
65 | CCOC(=O)C1CCN(S(=O)(=O)c2ccc(OC)c(C)c2C)CC1 [CBK268955] | 96.1%
66 | CC(C)C(=O)NC(=S)Nc1ccc2oc(-c3ccncc3)nc2c1 [CBK269702] | 96.4%
67 | O=C(c1cccnc1)N1CCc2ccccc21 [CBK200279] | 121%

Row | SMILES | viability at 28.5 h, 10 µM
68 | O=C(Nc1cc([N+](=O)[O-])ccc1O)c1ccc2c(c1)C(=O)N(Cc1cccnc1)C2=O [CBK266770] | 92.7%
69 | CC(C)CC(=O)Nc1ccc2nc(SCC(=O)O)sc2c1 [CBK299801] | 96.4%
70 | CN1C2CCC1CC(OC(=O)CNC1CCCCC1)C2 (stereo not drawn) [CBK278161C] | 93.6%
71 | CC(C)(C)OC(=O)N1CCC(COc2ccc(-c3ccncc3)cn2)CC1 [CBK161777] | 91.8%
72 | COc1ncccc1-c1cccnc1-n1ccnc1 [CBK176872] | 92.6%
73 | CCc1c(C)c2cc(Cl)c(O)c(CN3CCCC3)c2oc1=O [CBK267099] | 105%
74 | CCn1cc(CN(C)Cc2ccon2)c2cc(C(=O)O)ncc21 [CBK307017] | 84.7%
75 | CC(=O)N[C@H]1CO[C@H]2[C@@H]1OC[C@H]2OC(=O)Nc1ccc(Oc2ccccc2)cc1 [CBK289470] | 113%
76 | COc1cc(OC)nc(C(NC(=O)C2CCN(Cc3cccn3C)CC2)c2ccc(F)cc2)n1 (stereo not drawn) [CBK148170] | 104%
77 | COc1ccc(OCC(=O)NNC(=O)c2cnccn2)cc1 [CBK262619] | 98.1%
78 | CN(C)CCN(C)c1cncc(-c2ccc(F)cc2F)n1 [CBK065652] | 90.9%
79 | Cc1ccc(N)c(C(=O)CCCCC(=O)O)c1 [CBK260970] | 90.5%
80 | Cc1nc(-c2ccccc2)cc([C@H]2CN3CC[C@H]2C[C@@H]3CNS(C)(=O)=O)n1 [CBK289124] | 114%
81 | CC(NC(=O)C1CC=CCC1C(=O)O)C1CC2CCC1C2 (stereo not drawn) [CBK027112] | 114%
82 | O=C(O)/C(O)=C/C(=O)c1ccc(F)cc1 [CBK261844] | 89.4%
83 | COc1cccc(CN2CC=CCC(C3CCN(c4nc(C)cc(C)n4)CC3)C2=O)c1 (stereo not drawn) [CBK285915] | 85.6%
84 | CCN(CC)Cc1cc([N+](=O)[O-])cc2c1OCOC2 [CBK296613] | 113%
85 | CC(C)c1ccc(COc2nccnc2OC2CCN(CCCC#N)CC2)cc1 [CBK161576] | 96.5%
86 | CC(Nc1ccc2[nH]c(=O)[nH]c2c1)C(=O)N1CCN(c2ccccc2)CC1 (stereo not drawn) [CBK296748] | 99.4%
87 | c1ccc(C(NCc2cnc(-c3cnccn3)s2)C2CCC2)cc1 (stereo not drawn) [CBK304016] | 106%
88 | COc1ccc(CN2CC(C(=O)O)CC2=O)cc1 (stereo not drawn) [CBK267242] | 96.4%

Same assay, conditions: human, hela cells, % viability, bulk resorufin, single well

Row | SMILES | viability at 28.5 h, 10 µM
89 | O=C1NC(=O)C(CC(=O)N2CCC3(CC2)OCc2cc(-c4ccccc4)ccc2O3)N1 (stereo not drawn) [CBK061111] | 85.6%
90 | COc1cc(C2OCCNC2C)c(OC)cc1C (stereo not drawn) [CBK010347C] | 90.7%
